Assay results taken from the supplement of paper PMC11061612.

Columns and labels:
Assay in all cases: Bliss excess, mean over the matrix (fraction); higher = more synergy
[1] = tested on: EW-11 (Ewing's Sarcoma)
In short: (§1)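 Cell lines in DMEM/F12 or RPMI with 10% FBS were plated in 1536-well plates, held 24 hours at 37°C, 5% CO2, then given two-drug dose matrices for 72 hours (DMSO typically 0.2%). Viability was read by CellTiter-Glo 2.0 luminescence and scaled as inhibition from 0 (vehicle wells) to 1 (blank wells). Combination Emax is the second-highest inhibition in the matrix; Bliss excess is observed combination effect minus expected EA + EB − EA·EB, EA and EB being single-agent effects.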

[2] = tested on: NUGC-4 (Gastric Carcinoma)
In short: as §1

[3] = tested on: NCI-H2722 (Mesothelioma)
In short: as §1

[4] = tested on: HH (T-Cell Non-Hodgkin's Lymphoma)
In short: as §1

[5] = tested on: WSU-NHL (B-Cell Non-Hodgkin's Lymphoma)
In short: as §1

[6] = tested on: MPP-89 (Mesothelioma)
In short: as §1

[7] = tested on: SW1573 (Lung Adenocarcinoma)
In short: as §1

[8] = tested on: YAPC (Pancreatic Carcinoma)
In short: as §1

[9] = tested on: FTC-133 (Thyroid Gland Carcinoma)
In short: as §1

[10] = tested on: Detroit562 (Head and Neck Carcinoma)
In short: as §1

[11] = tested on: A673 (Ewing's Sarcoma)
In short: as §1

[12] = tested on: SW1710 (Bladder Carcinoma)
In short: as §1

[13] = tested on: BPH-1 (Non-Cancerous)
In short: as §1

[14] = tested on: GAMG (Glioblastoma)
In short: as §1

[15] = tested on: ALL-PO (B-Lymphoblastic Leukemia)
In short: as §1

[16] = tested on: TGBC1TKB (Biliary Tract Carcinoma)
In short: as §1

[17] = tested on: NCI-H2052 (Mesothelioma)
In short: as §1

[18] = tested on: SNU-16 (Gastric Carcinoma)
In short: as §1

[19] = tested on: Hs-746T (Gastric Carcinoma)
In short: as §1

[20] = tested on: SNU-449 (Hepatocellular Carcinoma)
In short: as §1

Row | Compound | Bliss excess [1] | Bliss excess [2] | Bliss excess [3] | Bliss excess [4] | Bliss excess [5] | Bliss excess [6] | Bliss excess [7] | Bliss excess [8] | Bliss excess [9] | Bliss excess [10] | Bliss excess [11] | Bliss excess [12] | Bliss excess [13] | Bliss excess [14] | Bliss excess [15] | Bliss excess [16] | Bliss excess [17] | Bliss excess [18] | Bliss excess [19] | Bliss excess [20]
1 | Cc1c2c(nn1C)CSCc1cc(n(C)n1)CSc1cc(c3ccccc3c1)OCCCc1c(C(=O)O)n(C)c3c-2c(Cl)ccc13 [AZD5991] + C[C@@H](Nc1cc(F)cc(F)c1)c1cc(C(=O)N(C)C)cc2c(=O)cc(N3CCOCC3)oc12 [AZD8186] (first compound max 1 µM, 7x7, partner max 3 µM) | -0.0009 | -0.0056 | -0.0434 | 0.105 | -0.0366 | 0.0083 | -0.0565 | -0.0159 | -0.0065 | 0.0065 | 0.0129 | -0.0083 | 0.0078 | -0.0458 | -0.0248 | -0.0236 | 0.0011 | 0.0087 | 0.0106 | -0.078
2 | CC1(C)CCC(CN2CCN(c3ccc(C(=O)NS(=O)(=O)c4ccc(NCC5CCOCC5)c([N+](=O)[O-])c4)c(Oc4cnc5[nH]ccc5c4)c3)CC2)=C(c2ccc(Cl)cc2)C1 [Venetoclax] + CCN(CCO)CCCOc1ccc2c(Nc3cc(CC(=O)Nc4cccc(F)c4)[nH]n3)ncnc2c1 [AZD2811] (first compound max 1 µM, 7x7, partner max 1 µM) | -0.0186 | -0.0481 | -0.0269 | -0.0152 | -0.0879 | -0.0093 | -0.0575 | -0.0103 | 0.0192 | -0.013 | 0.0295 | 0.0032 | -0.0198 | -0.0368 | 0.0129 | -0.0225 | -0.0112 | 0.0202 | -0.0383 | -0.0642
3 | CN(CCO)CC[C@H](CSc1ccccc1)Nc1ccc(S(=O)(=O)NC(=O)c2ccc(N3CCC([C@@H](O)c4ccccc4-c4ccc(Cl)cc4)CC3)cc2)cc1S(=O)(=O)C(F)(F)F [AZD4320] + C1CN(CCC1(C(=O)N[C@@H](CCO)C2=CC=C(C=C2)Cl)N)C3=NC=NC4=C3C=CN4 [Capivasertib] (first compound max 1 µM, 7x7, partner max 3 µM) | 0.0405 | -0.0706 | -0.081 | 0.0193 | -0.0413 | -0.0234 | -0.0614 | -0.0415 | -0.0459 | -0.0535 | 0.0099 | -0.034 | -0.0496 | -0.0661 | 0.0177 | -0.0306 | -0.0743 | 0.0015 | 0.0094 | -0.0742
4 | COc1cccc(OCCCN)c1-c1cc(Nc2cnc(C#N)cn2)n[nH]1 [Prexasertib] + CN(C)CCCOc1ccc(-c2ccc3ncc4c(c3c2)n(C2CCOCC2)c(=O)n4C)cn1 [AZD0156] (first compound max 1 µM, 7x7, partner max 1 µM) | -0.0705 | 0.0697 | 0.0073 | -0.0001 | -0.0066 | -0.0242 | -0.0129 | -0.0799 | -0.0596 | -0.014 | 0.0133 | -0.022 | 0.0118 | -0.0261 | 0.0036 | -0.0053 | -0.025 | -0.0135 | -0.0078 | -0.0227
5 | C=CCn1c(=O)c2cnc(Nc3ccc(N4CCN(C)CC4)cc3)nc2n1-c1cccc(C(C)(C)O)n1 [AZD1775] + O=C(c1cc(Cc2n[nH]c(=O)c3ccccc23)ccc1F)N1CCN(C(=O)C2CC2)CC1 [Olaparib] (first compound max 1 µM, partner max 10 µM) | -0.121 | -0.0481 | -0.0143 | -0.0449 | -0.025 | -0.0018 | -0.0268 | -0.071 | -0.0645 | -0.0389 | 0.0042 | -0.0299 | -0.0199 | 0.0147 | 0.0063 | -0.0558 | -0.0602 | 0.0102 | -0.0594 | -0.0418
6 | CC1(C)CCC(CN2CCN(c3ccc(C(=O)NS(=O)(=O)c4ccc(NCC5CCOCC5)c([N+](=O)[O-])c4)c(Oc4cnc5[nH]ccc5c4)c3)CC2)=C(c2ccc(Cl)cc2)C1 [Venetoclax] + COc1cc(Nc2ncc3c(n2)-c2ccc(Cl)cc2C(c2c(F)cccc2OC)=NC3)ccc1C(=O)O [Alisertib] (first compound max 1 µM, 7x7, partner max 10 µM) | 0.0369 | -0.0557 | -0.0855 | -0.0223 | -0.0521 | -0.0556 | -0.0548 | -0.0354 | 0.0138 | -0.043 | 0.198 | -0.0425 | -0.0459 | -0.0024 | 0.0529 | -0.0367 | -0.0169 | -0.052 | 0.0096 | -0.0753
7 | C[C@@H]1COCCN1c1cc(C2([S@](C)(=N)=O)CC2)nc(-c2ccnc3[nH]ccc23)n1 [AZD6738] + O=C(c1cc(Cc2n[nH]c(=O)c3ccccc23)ccc1F)N1CCN(C(=O)C2CC2)CC1 [Olaparib] (first compound max 10 µM, 7x7, partner max 10 µM) | -0.014 | -0.0163 | 0.0087 | -0.0082 | -0.0379 | 0.0055 | -0.0044 | -0.0007 | -0.0401 | 0.0381 | 0.0381 | -0.0498 | 0.0283 | -0.0461 | 0.018 | -0.0578 | 0.026 | -0.0054 | 0.0101 | 0.0007
